Experimental data as given in patent US11633370B2, “Use of scavengers of reactive gamma-ketoaldehydes to extend cell lifespan and healthspan” (Vanderbilt University, priority 2016, dated 2023).

Key:
N2 WT C. elegans = assay: IsoK-lysyl-lactam protein adduct quantification by LC/MS/MS; assay type: in vivo; details: increasing concentrations of SA until day 15, versus vehicle control; p<0.01
Source text: The mechanism by which IsoKs inactivate protein targets involves covalent adduction of the epsilon amine group on the side chains of lysine residues within target proteins (FIG. 2A). The initial product of this covalent adduction is a lactam ring structure composed of the lysyl side chain and the isoketal. SA's amine group is much more reactive toward IsoKs and preserves protein function by more rapidly forming an adduct with the IsoK, preventing the adduction of lysyl side chains. If this mechanism is operative in vivo when C. elegans are treated with SA, a dose-dependent reduction in IsoK-lysyl-lactam adducts should be observed. To test this directly, WT N2 worms were treated with vehicle or increasing concentrations of SA until day 15, then collected for IsoK-lysyl-lactam adduct quantification by liquid chromatography tandem mass spectrometry (LC/MS/MS) using a heavy isotope-labeled internal standard for quantification.
Worms grown on FUDR containing SA-OP50-seeded NGM plates were collected at Day 15 adult stage by washing in M9 medium, followed by an ice-cold 60% w/v sucrose gradient to segregate clean bacteria-free adult worms from bacterial debris. Clean worms were transferred to Eppendorf tubes and flash-frozen in liquid nitrogen and thawed at 37° C. 3×. […] Levels of IsoK-lysyl-lactam adduct was measured as previously described. […]

VC199 SIR-2.1 mutants = assay: mtDNA copy number by qPCR, VC199; assay type: in vivo, C. elegans; details: with age or with SA treatment
Source text: Mitochondria lie at the center of aging biology, playing crucial roles in energy production, carbon substrate metabolism, apoptosis regulation, and redox balance and signaling. Since sirtuins play a major role in regulating mitochondrial function, the present inventors next wanted to investigate whether SA was exerting any of its effects via protection of mitochondrial processes. To investigate SA's effects on mitochondrial respiration, the present inventors administered SA to WT N2 (FIG. 5A) and non-functional SIR-2.1 mutant worms (FIG. 5B) and measured oxygen consumption rate (OCR) in whole worms over several days. […] The present inventors also examined the effect of SA treatment on mitochondrial DNA (mtDNA) integrity.
Relative mitochondrial and nuclear copy number were measured by quantitative, real-time PCR [90]. Primers for NADH dehydrogenase unit 1 (nd1) and a 164 bp region of the cox-4 gene were used in determination of mtDNA copy number. The nd1 forward primer 5′-[…]-3′ and reverse primer 5′-[…]-3′. Cox-4 forward primer 5′-GCCGACTGGAAGAACTTGTC-3′ and reverse primer 5′-[…]-3′. […] Amplified products were detected with SYBR Green (iQ™ SYBR® Green Supermix, Bio-Rad) and fluorescent signal intensities were determined by CFX96 Touch™ Real-Time PCR Detection System (Bio-Rad) by software CFX Manager™ (version 3.1). […]

[1] = compared with pyridoxamine (PM); cited from earlier work

For `NCc1ccccc1O` [SA, salicylamine], the IsoK-lysyl-lactam adduct levels (N2 WT C. elegans) is given as “significant, dose-dependent reduction”, the “mtDNA copy number relative to nuclear DNA” value (VC199 SIR-2.1 mutants) is given as “no significant difference” and the lipophilicity [1] is given as “more lipophilic”.
